# Results: US3963777A, “1-Polyhydroxy alkyl-1,4-benzodiazepin-2-ones” (Hoffmann-La Roche Inc., priority 1975, dated 1976)
# Assays:
# [1] = LD50 (p.o.), acute toxicity; settings: in vivo, po
# [2] = standard pentamethylenetetrazole (pentetrazole) test for anticonvulsant activity, method of Orloff; format: in vivo; settings: p.o.
# Source text: The compounds of formula I above and their pharmaceutically acceptable acid addition salts are useful as sedative muscle relaxant and anti-convulsant agents.
# mice = test: standard rotating rod test (sedative and muscle-relaxant activity); format: in vivo; settings: p.o.
# Protocol: In this test, the ability of mice to achieve a coordinated motor performance is investigated. After peroral administration of the test substance, the mice are placed upon a horizontal slowly rotating rod and the time they remain on the rod is recorded. The ED50 is that dose which reduces the holding on period of the mice by 50% as compared to the holding on period prior to the administration of the test substance.
smiles,measurement,setting,value
"O=C1CN=C(c2ccccc2F)c2cc(Cl)ccc2N1CC(O)CO (stereo not drawn) [Compound A, 7-chloro-1-(2,3-dihydroxypropyl)-5-(2-fluorophenyl)-1,3-dihydro-2H-1,4-benzodiazepin-2-one]",LD50,[1],1250 to 2500 mg/kg
same,APR 2.0 (dosage of an anticonvulsant which causes a two-fold pentetrazole consumption in contrast to an untreated control group),[2],5.6 mg/kg
same,ED50 (dose which reduces the holding on period of the mice by 50% as compared to the holding on period prior to administration),mice,5.1 mg/kg
